# Measured values from US20080051464A1, “Protein phosphatase inhibitors” (The Cleveland Clinic Foundation, priority 2006, published 2008).
# Tests used:
# pERK1/2 in Jurkat cells = pERK1/2 in Jurkat cells (Western blotting); format: cell-based, human
# Experimental: (§1) Jurkat cells in culture medium (3×10^6 cells/ml, 1 ml/tube) were treated with agents for designated times at room temperature. After brief centrifuging in a microfuge (4,000 rpm, 2 min), the cell pellet was lysed on ice for 30 min in 100 μl of cold lysis buffer (1% NP40, 50 mM Tris, pH 7.4, 150 mM NaCl, 20 mM NaF, 0.2 mM Na3VO4 and 1 mM Na3MO4) containing a cocktail of proteinase inhibitors (Sigma, 1 tablet/10 ml). The lysates were cleared by centrifuging (14,000 rpm, 10 min) in a microfuge at 4° C. to remove insoluble parts, mixed with equal volume of 2×SDS-PAGE sample buffer, boiled for 5 min and analyzed (˜3×10^5 cells/well) by SDS-PAGE/Western blotting. Relative intensities of phosphotyrosine bands were quantified through densitometry analysis.
# as §1, with “blotting as described previously (17, 18).” for “blotting.”
# [1] = test system: pLck-pY505 (dephosphorylated by PTPase CD45) in Jurkat cells; experiment: pLck-pY505 in Jurkat cells (Western blotting); format: cell-based, human; settings: L5-treated Jurkat cells
# Experimental: as §1
# B16 melanoma tumors [2] = experiment: B16 melanoma tumor growth in athymic nude mice; format: in vivo, mouse; settings: 3 mg/kg/day, oral, M-F/week
# Experimental: To assess L5 anti-tumor activity, C57BL/6J mice or athymic nude mice (˜8-week old, female, Taconic Farms, Germantown, N.Y.) were inoculated (s.c.) at the flanks with B16 melanoma cells (4×10^4 cells/site). Four days post-inoculation, the mice were treated with PBS (Control) or L5 (˜3 mg/kg body weight/daily, Monday—Friday/week, oral gavage). Tumor volume (n=5) was measured during the study period and calculated using the formula for a prolate spheroid. Student's t test was used for assessing the significance of tumor volume differences among differential treatment groups. Mouse viability (daily) and body weights (weekly) were also recorded during the study period. Major internal organs of the mice were inspected visually upon their termination at the end of the experiment.
# [3] = test system: pZap70, pSlp76 and pLAT in Jurkat cells; experiment: induction of pZap70, pSlp76 and pLAT in Jurkat cells (Western blotting); format: cell-based, human
# Experimental: as §1
# Jurkat cells in culture medium (3×10^6 cells/ml, 1 ml/tube) were treated with agents for designated times at room temperature. […] The lysates were cleared by centrifuging (14,000 rpm, 10 min) in a microfuge at 4° C. to remove insoluble parts, mixed with equal volume of 2×SDS-PAGE sample buffer, boiled for 5 min and analyzed (˜3×10^5 cells/well) by SDS-PAGE/Western blotting as described previously (17, 18). Relative intensities of phosphotyrosine bands were quantified through densitometry analysis.
# [4] = test system: IFNγ+ cells in human peripheral blood; experiment: induction of IFNγ+ cells in human peripheral blood in vitro (ELISPOT); format: cell-based
# Experimental: For induction of human primary IFNγ+ cells, heparinized peripheral blood samples were obtained by vein-puncture from healthy volunteers following an established protocol approved by the Institutional Review Board (IRB) of Cleveland Clinic. To mimic in vivo drug-exposure, human peripheral blood samples were directly treated with different agents without pre-separation of white blood cells from other blood components. Blood samples (0.1 ml/sample) were mixed with the agents, incubated at 37° C. for 4 hrs, diluted with 5 volumes of hypotonic solution (10 mM Tris, pH 7.4; 10 mM NaCl) to lyse RBC and centrifuged to pellet WBCs. The pellets were washed with hypotonic solution one time, re-suspended in RPMI 1640 medium (10% FCS) and used for ELISPOT assays (Human IFNγ ELISPOT Kit, R & D System) to quantify human IFNγ+ cells as outlined above.
# B16 melanoma tumors [5] = experiment: B16 melanoma tumor growth in C57BL/6J mice; format: in vivo
# Experimental: Tumor volume (n=5) was measured during the study period and calculated using the formula for a prolate spheroid. Student's t test was used for assessing the significance of tumor volume differences among differential treatment groups. Mouse viability (daily) and body weights (weekly) were also recorded during the study period. Major internal organs of the mice were inspected visually upon their termination at the end of the experiment.
# To assess anti-tumor activity, C57BL/6J mice (˜8-week old, female, Taconic Farms, Germantown, N.Y.) were inoculated (s.c.) at the flanks with B16 melanoma cells (4×10^4 cells/site). […] Tumor volume (n=5) was measured during the study period and calculated using the formula for a prolate spheroid. Student's t test was used for assessing the significance of tumor volume differences among differential treatment groups. Mouse viability (daily) and body weights (weekly) were also recorded during the study period. Major internal organs of the mice were inspected visually upon their termination at the end of the experiment.
compound,measurement,setting,value
O=C1C=CC(=O)C(c2cc(Cl)ccc2Cl)=C1 [L5],levels of pERK1/2,pERK1/2 in Jurkat cells; 1 μg/ml,reduced the levels of pERK1/2
same,effect on SHP-2 or CD45 phosphatases,pERK1/2 in Jurkat cells; 10-100 ng/ml in Jurkat cells,did not affect
same,levels of pERK1/2,pERK1/2 in Jurkat cells; lower doses (0.1 to 0.001 μg/ml),not at lower doses
same,pLck-pY505,[1],little effects
same,B16 melanoma tumors in athymic nude mice,B16 melanoma tumors [2],not inhibited
same,levels of pZap70 and pSlp76,"[3]; 0.01, 0.1, 1 or 3 μg/ml",obviously increased
same,pLAT,[3]; L5-treated Jurkat cells,induced pLAT
same,maximal induction of IFNγ+ cells in human peripheral blood,[4]; 8 μg/ml,20 fold
same,effectiveness compared with SSG in inducing IFNγ+ cells,"[4]; maximal induction at a comparable dose, human peripheral blood",~20 fold
same,survival of treated mice,"B16 melanoma tumors [5]; 1 mg/kg daily, oral gavage",survived till the end of the study
same,abnormality in behavior or gross anatomy,"B16 melanoma tumors [5]; 3 mg/kg/day, oral",no apparent abnormality in behavior or gross anatomy
same,survival of treated mice,"B16 melanoma tumors [5]; 3 mg/kg/day, oral",survived until the end of the study
same,growth inhibition of B16 tumors vs control,"B16 melanoma tumors [5]; 3 mg/kg/day, oral, M-F/week, end of study",~83%
